# In patent publication US20170303540A1, “NOVEL TRIAZOLE DERIVATIVES” (BAYER CROPSCIENCE AKTIENGESELLSCHAFT, priority 2014, published 2017):
# Test: Log P by HPLC on reversed phase columns (EEC directive 79/831 Annex V.A8)
# Format: physicochemical
# Settings: method [a]: HPLC/LC-MS at pH 2.7, 0.1% formic acid in water / acetonitrile gradient
# Procedure: Measurement of Log P values for Table 2 was performed according to EEC directive 79/831 Annex V.A8 by HPLC (High Performance Liquid Chromatography) on reversed phase columns with the following methods: ^[a]Measurement of LC-MS was done at pH 2.7 with 0.1% formic acid in water and with acetonitrile (contains 0.1% formic acid) as eluent with a linear gradient from 10% acetonitrile to 95% acetonitrile. […] Lambda-max-values were determined using UV-spectra from 200 nm to 400 nm and the peak values of the chromatographic signals.
row,Compound,LogP
1,CC(C)(Cc1ccc(Cl)cc1)C(O)(Cc1ccnnc1Cl)Cn1cncn1 (stereo not drawn) [Example I-368],2.75^[a]
2,C=CC(C)(C)C(O)(Cc1ccnnc1Cl)Cn1cncn1 (stereo not drawn) [Example I-592],1.60^[a]
3,OC(Cc1ccc(Cl)cc1Cl)(Cc1ccnnc1Cl)Cn1cncn1 (stereo not drawn) [Example I-444],2.34^[a]
4,CC(CF)(CF)C(O)(Cc1ccnnc1Cl)Cn1cncn1 (stereo not drawn) [Example I-530],1.28^[a]

# The remaining lines, values ahead:
row,LogP,Compound
1,1.59^[a],CCC1(C(O)(Cc2ccnnc2Cl)Cn2cncn2)CC1 (stereo not drawn) [Example I-745]
2,1.70^[a],CC(C)(CCl)C(O)(Cc1ccnnc1Cl)Cn1cncn1 (stereo not drawn) [Example I-771]
3,0.84^[a],OC(Cc1ccnnc1Cl)(Cn1cncn1)C1CC1 (stereo not drawn) [Example I-799]
4,1.49^[a],OC(Cc1cc(Cl)nnc1Cl)(Cn1cncn1)C1CC1 (stereo not drawn) [Example I-710]
5,1.31^[a],CC(C)(CF)C(O)(Cc1ccnnc1Cl)Cn1cncn1 (stereo not drawn) [Example I-593]
6,2.18^[a],CCC1(C(O)(Cc2cc(Cl)nnc2Cl)Cn2cncn2)CC1 (stereo not drawn) [Example I-441]
7,2.96^[a],OC(Cc1ccc(Cl)cc1Cl)(Cc1cc(Cl)nnc1Cl)Cn1cncn1 (stereo not drawn) [Example I-480]

# Same assay, conditions: reversed phase HPLC columns; method [a]: HPLC/LC-MS at pH 2.7, 0.1% formic acid in water / acetonitrile gradient
row,chromatographic logP,Compound
1,1.48,"CC(C)(C)C(O)(Cc1ccnnc1Cl)Cn1cncn1 (stereo not drawn) [Example I-713, 1-(3-chloropyridazin-4-yl)-3,3-dimethyl-2-(1H-1,2,4-triazol-1-ylmethyl)butan-2-ol]"
